Laboratory results taken from ChEMBL document CHEMBL5316360, “Fatty Acid Conjugated Chalcones as Tubulin Polymerization Inhibitors: Design, Synthesis, QSAR, and Apoptotic and Antiproliferative Activity” (J Nat Prod, 2023).

What was measured:
Erythrocyte = experiment: Hemolytic activity in Albino rat RBC at 150 uM incubated for 15 mins by spectrophotometric analysis; type: toxicity, cell-based; details: 0.25 h
WI-38 = experiment: Cytotoxicity against human WI-38 cells assessed as reduction in cell viability at 10 to 100 uM measured after 24 hrs by MTT assay; type: toxicity, cell-based; details: wi-38, 24 h, dose 10-100 µM
A549 = experiment: Antiproliferative activity against human A549 cells assessed as inhibition of cell growth measured after 24 hrs by MTT assay; type: functional, cell-based; details: A549, 24 h
MCF7 = experiment: Antiproliferative activity against human MCF7 cells assessed as inhibition of cell growth measured after 24 hrs by MTT assay; type: functional, cell-based; details: MCF7, 24 h
Tubulin (Homo sapiens) = Tubulin (Homo sapiens) (UniProt P68371+Q9H4B7+P0DPH7+P68366+Q13509+Q71U36+P04350+Q3ZCM7+P07437+P68363+Q9BQE3+Q6PEY2+Q13885+Q9BVA1+Q9BUF5); experiment: Inhibition of tubulin polymerization in human MCF7 cells assessed as fold increase in tubulin inhibition incubated for 18 to 24 hrs by ELISA method; type: cell-based; details: time 18-24 hrs
Tubulin = experiment: Inhibition of tubulin polymerization in human MCF7 cells incubated for 18 to 24 hrs by ELISA method; type: cell-based

CCCCCCCCCCCCCCCC(=O)Nc1ccc(C(=O)/C=C/c2ccc(Cl)cc2)cc1
Activity (Erythrocyte): Non-Toxic

CCCCCCCCCCCCCCCC(=O)Nc1ccc(C(=O)/C=C/c2ccccc2)cc1
Activity (WI-38): Non-Toxic

CCCCCCCCCC(=O)Nc1ccc(C(=O)/C=C/c2ccc(C)cc2)cc1
IC50 (A549): 2.1 µM
Activity (WI-38): Non-Toxic
IC50 (MCF7): 2.6 µM
fold change (FC) (Tubulin (Homo sapiens)): 2

CCCCCCCCCC(=O)Nc1ccc(C(=O)/C=C/c2ccc(OC)cc2)cc1
fold change (FC) (Tubulin (Homo sapiens)): 2

CCCCCCCCCCCCCCCC(=O)Nc1ccc(C(=O)/C=C/c2ccc(OC)cc2)cc1
Activity (Erythrocyte): Non-Toxic

CCCCCCCCCCCCCC(=O)Nc1ccc(C(=O)/C=C/c2ccccc2)cc1
Activity (WI-38): Non-Toxic

CCCCCCCC(=O)Nc1ccc(C(=O)/C=C/c2ccccc2)cc1
Activity (WI-38): Non-Toxic
IC50 (MCF7): 2.1 µM
IC50 (Tubulin): 1.5 µM

CCCCCCCCCCCCCCCC(=O)Nc1ccc(C(=O)/C=C/c2ccc(C)cc2)cc1
Activity (Erythrocyte): Non-Toxic

CCCCCCCCCC(=O)Nc1ccc(C(=O)/C=C/c2ccccc2)cc1
IC50 (A549): 0.65 µM
Activity (WI-38): Non-Toxic

CCCCCCCCCCCCCCCCCC(=O)Nc1ccc(C(=O)/C=C/c2ccccc2)cc1
Activity (WI-38): Non-Toxic
IC50 (Tubulin): 0.8 µM

CCCCCCCCCC(=O)Nc1ccc(C(=O)/C=C/c2ccc(Cl)cc2)cc1
IC50 (A549): 3.2 µM
Activity (WI-38): Non-Toxic
IC50 (MCF7): 2.9 µM
fold change (FC) (Tubulin (Homo sapiens)): 2
